Legend:
RDSVS-TCC1 cells = assay: MTT cytotoxicity, RDSVS-TCC1; assay type: cell-based, canine; conditions: Canis lupus familiaris, 72 h, mean ± SD, read-out: IC50 values after 72 h
Description: (§1) The study involved four canine cancer cell lines: RDSVS-TCC1 and K9NK (bladder cancer), CLBL-1 (B-cell lymphoma), GL-1 (B/T-cell leukemia) and noncancerous cell line CF2TH (fetal canine thymus). CLBL-1 was obtained from Barbara C.Ruetgen from the Institute of Immunology, Department of Pathobiology, University of Veterinary Medicine, Vienna[48]. GL-1 from Yasuhito Fujino and Hajime Tsujimoto of the University of Tokyo, Department of Veterinary Internal Medicine[49]. The CF2TH cell line was purchased from American Type Culture Collection (ATCC, Rockville, MD, USA).
(§2) The cell lines were maintained in RPMI- 1640 (CLBL-1, GL-1 and CF2TH) (Gibco, Grand Island, NY, USA) or DMEM (Institute of Immunology and Experimental Therapy, Polish Academy of Sciences, Wrocław, Poland) (RDSVS-TCC1, K9NK) culture medium supplemented with 10% fetal bovine serum FBS (Gibco, Grand Island, NY, USA), 100 units/mL penicillin and […] streptomycin and 1% of L-glutamine (Sigma Aldrich, Steinheim, Germany).
(§3) The cytotoxicity assay was determined by MTT test after 72 h of treatment, according to the procedure described previously[50] with minor modifications.
(§4) In summary, the cells plated at the density of 3*10^4 (k9NK, RDSVS-TCC1), 2*10^5 (CLBL-1, GL-1) and 7.5*10^3 (CF2TH) per mililiter were seeded in 96-well plates (NUNC, Denmark).
(§5) The concentration of tested flavonoids was in the range 1.25–50 µM and DMSO concentration was < 1% in each dilution which is considered harmless to the cells). After incubation for 72 h, 10 µl of 3-(4,5-dimethylthiazol-2-yl)-2,5-diphenyltetrazolium bromide (MTT) solution was added to each well followed by 4 h incubation, then 40 μL of lysis buffer were added. The optical density (OD) of formazan formed from MTT was measured after 24 h using a spectrophotometric microplate reader (Spark, Tecan, Männedorf, Switzerland) at […] 570 nm.
(§6) The results were: determined from more than three independent experiments (three wells each) and presented as mean IC50 value ± SD.

K9NK cells = assay: MTT cytotoxicity, K9NK; assay type: cell-based, canine; conditions: Canis lupus familiaris, 72 h, mean ± SD, read-out: IC50 values after 72 h
Description: as §1, §2, §3, §4, §5, §6

GL-1 cells = assay: MTT cytotoxicity, GL-1; assay type: cell-based, canine; conditions: Canis lupus familiaris; GL-1, MTT, 72 h, mean ± SD; read-out: IC50 values after 72 h
Description: as §1, §2, §3, §4, §5, §6

CLBL-1 cells = assay: MTT cytotoxicity, CLBL-1; assay type: cell-based, canine; conditions: Canis lupus familiaris; CLBL-1, MTT, 72 h, mean ± SD; read-out: IC50 values after 72 h
Description: as §1, §2, §3, §4, §5, §6

CF2TH cells = assay: MTT cytotoxicity, CF2TH normal cell line; assay type: cell-based, canine; conditions: Canis lupus familiaris, 72 h, mean ± SD, read-out: IC50 values after 72 h
Description: as §1, §2, §3, §4, §5, §6

[1] = test system: RDSVS-TCC1, GL-1, CLBL-1, CF2TH cells; assay: MTT cytotoxicity, all lines tested except K9NK; assay type: cell-based, canine; conditions: Canis lupus familiaris, 72 h
Description: as §1, §2, §3, §4, §5, §6

[2] = Hemolysis of red blood cells; assay type: cell-based; conditions: human, human red blood cells (erythrocytes), read-out: degree of haemolysis
Procedure: The cytotoxicity level of the compounds was assessed through a haemolytic activity test, measuring the impact of six compounds at concentrations of […] on human red blood cells (RBCs). According to toxicity categorization, compounds are considered highly toxic if they cause a haemolysis rate of 90–100% and are considered non-toxic if the haemolysis rate falls within the range of 0–9%[28].
Hemolysis, a method to assess the release of hemoglobin from red blood cells (RBCs), was comprehensively explained in our prior research.
For erythrocytes with a hematocrit level of 12%, the compounds were introduced at concentrations of 10, 20, 40 and 60 μM. The prepared samples were kept at 37 °C for 1 and 24 h.
After the incubation period, the samples underwent centrifugation, and the hemoglobin concentration in the supernatants was quantified using a UV–VIS spectrophotometer (Specord 40, AnalytikJena) at a wavelength of 540 nm. The percentage of RBCs hemolysis were determined by comparing the absorbance of hemoglobin in the tested samples to the absorbance of hemoglobin in completely hemolyzed cells (100%). Samples achieving total hemolysis (100%) were generated by adding distilled water.

[3] = test system: breast cancer cells MCF-7; design: method as in PMID 32364671; conditions: cited from earlier work

melting point | Compound | IC50 (RDSVS-TCC1 cells) | IC50 (K9NK cells) | IC50 (GL-1 cells) | IC50 (CLBL-1 cells) | IC50 (CF2TH cells) | IC50 [1] | hemolysis at 24 h, 30 µM ([2]; 30 μM) | hemolysis at 24 h, 40 µM ([2]; 40 μM) | hemolysis at 24 h, 50 µM ([2]; 50 μM) | IC50 [3]
– | O=c1cc(-c2ccc(Cl)cc2)oc2ccccc12 [D3, 4′-chloroflavone] | 28.2 ± 5.62 µM | 19.4 ± 6.75 µM | 35.1 ± 6.17 µM | 32.8 ± 2.11 µM | 28.4 ± 5.02 µM | ~30 µM | – | – | – | –
– | O=c1cc(-c2ccccc2)oc2c(Br)cc(Cl)cc12 [D6, 8-bromo-6-chloroflavone] | 37.7 ± 14.4 µM | 29.1 ± 16.2 µM | 47.2 ± 1.41 µM | 38.1 ± 7.81 µM | 38.1 ± 7.87 µM | – | – | – | – | –
– | O=c1cc(-c2ccccc2)oc2ccc(Cl)cc12 [D4, 6-chloroflavone] | 58.7 ± 13.3 µM | 35.6 ± 3.41 µM | 62.4 ± 2.89 µM | 74.4 ± 28.7 µM | 80.9 ± 14.1 µM | – | 10.8 ± 5.46% | – | – | –
109 to 110 °C | O=c1cc(-c2ccccc2Cl)oc2ccccc12 [D1, 2′-chloroflavone] | 32.6 ± 8.04 µM | 59.9 ± 14.7 µM | 26.5 ± 3.05 µM | 26.6 ± 3.61 µM | 28.2 ± 6.6 µM | ~30 µM | – | – | – | –
– | O=c1cc(-c2ccccc2)oc2c(Cl)cc(Cl)cc12 [D5, 6,8-dichloroflavone] | 43 ± 11.3 µM | 30.5 ± 13.8 µM | 38.8 ± 6.48 µM | 76.4 ± 23.2 µM | 28.5 ± 18 µM | – | – | – | – | –
– | O=c1cc(-c2cccc(Cl)c2)oc2ccccc12 [D2, 3′-chloroflavone] | 31.6 ± 5.97 µM | 31.2 ± 6.87 µM | 26.5 ± 4.57 µM | 26.3 ± 6.33 µM | 22.9 ± 6.88 µM | ~30 µM | – | 16 ± 1.78% | 22.7 ± 1.98% | –
– | O=c1cc(-c2ccccc2)oc2c(Br)c(O)c(O)c(O)c12 [8-bromobaicalei] | – | – | – | – | – | – | – | – | – | 10 ± 3 µM
